In patent publication US20230150974A1 (Foghorn Therapeutics Inc., priority 2020, published 2023):

How the values were obtained:
[1] = target: T1, HiBit-BRG1 (Homo sapiens, UniProt P51532); test: HiBit-BRG1 cell-based degradation assay (Nano-Glo HiBiT Lytic Detection); conditions: HeLa cells expressing HiBit-BRG1 and LgBit, 24 h; for DC50: read-out: BRG1 HiBit Degradation IC50; for Dmax: read-out: BRG1 HiBit Degradation Maximum (%)
T1 construct: expressed in transfected cells
Procedure, shortened: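 HeLa cells stably expressing HiBiT-BRG1 plus LgBit, 5000/well, treated 24 h, then lysed with Nano-Glo HiBiT lytic reagent and luminescence read. % degradation normalised between DMSO (high control) and 2 μM reference BRM/BRG1 degrader (low control).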

[2] = target: T2, HiBiT-BRM (Homo sapiens, UniProt P51531); test: HiBiT-BRM cell-based degradation assay (Nano-Glo HiBiT Lytic Detection); conditions: HeLa cells expressing HiBiT-BRM, 24 h; for DC50: read-out: BRM HiBit Degradation IC50
T2 construct: expressed in transfected cells
Procedure, shortened: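 HeLa cells stably expressing HiBiT-tagged BRM were treated for 24 h, then lysed with LgBiT-containing Nano-Glo reagent and luminescence read. % degradation scaled between DMSO (high control) and 2 μM reference BRM/BRG1 degrader (low control).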

T2 sequence (P51531 whole entry): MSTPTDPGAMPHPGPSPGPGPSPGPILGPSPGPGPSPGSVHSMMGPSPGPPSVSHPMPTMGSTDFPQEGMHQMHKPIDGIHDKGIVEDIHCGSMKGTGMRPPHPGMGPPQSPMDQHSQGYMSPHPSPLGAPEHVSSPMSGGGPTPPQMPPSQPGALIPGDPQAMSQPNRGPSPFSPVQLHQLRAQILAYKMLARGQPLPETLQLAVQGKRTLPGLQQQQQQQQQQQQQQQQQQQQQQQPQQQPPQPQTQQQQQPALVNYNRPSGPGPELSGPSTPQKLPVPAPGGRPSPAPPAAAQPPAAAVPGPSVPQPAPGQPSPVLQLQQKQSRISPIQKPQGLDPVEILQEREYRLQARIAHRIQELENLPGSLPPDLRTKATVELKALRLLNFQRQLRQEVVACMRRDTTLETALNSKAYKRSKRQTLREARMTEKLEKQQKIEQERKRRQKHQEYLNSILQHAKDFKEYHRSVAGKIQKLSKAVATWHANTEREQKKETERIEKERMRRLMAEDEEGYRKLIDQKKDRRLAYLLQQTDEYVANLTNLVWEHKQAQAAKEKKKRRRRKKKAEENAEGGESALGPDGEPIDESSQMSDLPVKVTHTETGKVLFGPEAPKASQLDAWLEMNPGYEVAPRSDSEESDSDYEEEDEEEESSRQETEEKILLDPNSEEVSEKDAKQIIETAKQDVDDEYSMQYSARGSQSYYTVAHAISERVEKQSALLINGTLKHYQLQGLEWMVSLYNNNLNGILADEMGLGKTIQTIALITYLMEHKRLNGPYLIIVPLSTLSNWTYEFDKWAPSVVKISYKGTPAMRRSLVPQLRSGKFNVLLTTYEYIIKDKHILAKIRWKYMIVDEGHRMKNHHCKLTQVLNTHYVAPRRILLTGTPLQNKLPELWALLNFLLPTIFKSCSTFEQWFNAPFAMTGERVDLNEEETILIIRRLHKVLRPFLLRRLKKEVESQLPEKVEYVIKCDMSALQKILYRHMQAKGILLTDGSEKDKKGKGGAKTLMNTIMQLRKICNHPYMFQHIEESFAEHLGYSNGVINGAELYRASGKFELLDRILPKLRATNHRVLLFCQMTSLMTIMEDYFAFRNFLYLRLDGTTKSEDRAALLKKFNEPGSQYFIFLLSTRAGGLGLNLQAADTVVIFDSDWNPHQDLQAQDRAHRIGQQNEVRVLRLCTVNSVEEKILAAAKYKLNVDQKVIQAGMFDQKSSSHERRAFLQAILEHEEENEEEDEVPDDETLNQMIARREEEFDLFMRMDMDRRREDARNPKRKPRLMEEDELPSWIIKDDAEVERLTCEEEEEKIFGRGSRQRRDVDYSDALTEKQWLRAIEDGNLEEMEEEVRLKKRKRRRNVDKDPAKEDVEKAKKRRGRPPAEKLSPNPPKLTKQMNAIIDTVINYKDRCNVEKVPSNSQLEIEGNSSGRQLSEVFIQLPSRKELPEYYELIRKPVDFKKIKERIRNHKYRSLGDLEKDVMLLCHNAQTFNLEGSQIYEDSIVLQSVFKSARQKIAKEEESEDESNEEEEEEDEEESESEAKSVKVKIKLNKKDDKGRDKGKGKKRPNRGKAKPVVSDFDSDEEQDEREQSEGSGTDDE
T1 sequence (P51532 whole entry): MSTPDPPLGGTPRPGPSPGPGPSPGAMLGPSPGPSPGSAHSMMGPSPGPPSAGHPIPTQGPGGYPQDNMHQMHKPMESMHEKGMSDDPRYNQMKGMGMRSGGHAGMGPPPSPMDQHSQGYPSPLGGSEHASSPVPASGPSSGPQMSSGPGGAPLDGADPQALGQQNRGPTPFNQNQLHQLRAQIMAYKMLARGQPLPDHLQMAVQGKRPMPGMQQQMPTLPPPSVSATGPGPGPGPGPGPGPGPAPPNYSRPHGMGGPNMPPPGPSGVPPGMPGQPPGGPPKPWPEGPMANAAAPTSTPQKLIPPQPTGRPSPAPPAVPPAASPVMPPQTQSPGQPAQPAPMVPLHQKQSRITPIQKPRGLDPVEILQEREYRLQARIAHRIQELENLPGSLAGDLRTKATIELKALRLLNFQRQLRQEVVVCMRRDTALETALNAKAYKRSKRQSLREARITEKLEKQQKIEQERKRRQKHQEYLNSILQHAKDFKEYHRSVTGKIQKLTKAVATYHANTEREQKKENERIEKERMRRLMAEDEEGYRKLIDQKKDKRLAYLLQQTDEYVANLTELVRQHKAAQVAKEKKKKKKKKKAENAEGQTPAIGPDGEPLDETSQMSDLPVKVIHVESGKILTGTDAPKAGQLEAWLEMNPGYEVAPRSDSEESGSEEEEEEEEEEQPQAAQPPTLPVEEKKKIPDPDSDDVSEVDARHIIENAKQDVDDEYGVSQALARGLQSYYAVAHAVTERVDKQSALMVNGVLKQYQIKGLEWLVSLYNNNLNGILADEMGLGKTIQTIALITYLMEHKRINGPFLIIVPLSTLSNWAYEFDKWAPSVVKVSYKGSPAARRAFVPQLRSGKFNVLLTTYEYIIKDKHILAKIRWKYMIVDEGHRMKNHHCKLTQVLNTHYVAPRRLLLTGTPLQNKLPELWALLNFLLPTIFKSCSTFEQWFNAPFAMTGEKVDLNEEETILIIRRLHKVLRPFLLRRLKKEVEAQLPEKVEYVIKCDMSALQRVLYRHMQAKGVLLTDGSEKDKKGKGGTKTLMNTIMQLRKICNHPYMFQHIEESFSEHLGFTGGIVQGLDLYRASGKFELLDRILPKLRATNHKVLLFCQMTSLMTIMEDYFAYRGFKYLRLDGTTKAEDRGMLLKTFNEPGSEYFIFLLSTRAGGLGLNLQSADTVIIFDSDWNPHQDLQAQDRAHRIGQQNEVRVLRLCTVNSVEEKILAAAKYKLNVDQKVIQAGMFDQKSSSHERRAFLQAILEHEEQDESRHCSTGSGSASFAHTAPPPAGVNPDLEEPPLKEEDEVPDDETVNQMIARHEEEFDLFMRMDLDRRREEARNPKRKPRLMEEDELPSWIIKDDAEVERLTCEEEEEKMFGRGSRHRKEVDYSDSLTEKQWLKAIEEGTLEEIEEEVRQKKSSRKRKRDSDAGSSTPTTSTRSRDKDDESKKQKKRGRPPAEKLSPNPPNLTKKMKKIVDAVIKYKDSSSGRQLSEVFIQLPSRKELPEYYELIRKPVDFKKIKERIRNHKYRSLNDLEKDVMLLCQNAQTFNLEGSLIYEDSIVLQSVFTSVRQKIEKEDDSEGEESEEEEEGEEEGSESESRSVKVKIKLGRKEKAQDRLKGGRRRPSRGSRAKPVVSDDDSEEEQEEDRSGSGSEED

Row | DC50 [1] [nM] | Dmax [1] [%] | DC50 [2] [nM] | Compound | BRM HiBit Degradation Maximum (%) [2]
1 | > 100 | > 75 | > 10 | Cc1ncsc1-c1ccc([C@H](C)NC(=O)[C@@H]2C[C@@H](O)CN2C(=O)[C@@H](c2cc(OCCN3CCC4(CC3)CCN(C(=O)c3ccc(CCOc5cc(-c6ccccc6O)nnc5N)cc3)CC4)no2)C(C)C)cc1 [Compound 209, (2S,4R)-1-[(2R)-2-[3-(2-[9-[4-(2-[[3-amino-6-(2-hydroxyphenyl)pyridazin-4-yl]oxy]ethyl)benzoyl]-3,9-diazaspiro[5.5]undecan-3-yl]ethoxy)-1,2-oxazol-5-yl]-3-methylbutanoyl]-4-hydroxy-N-[(1S)-1-[4-(4-methyl-1,3-thiazol-5-yl)phenyl]ethyl]pyrrolidine-2-carboxamide] | A (“A” indicates maximum degradation ≥75%)
2 | > 1000 | > 50 | > 10 | Cc1ncsc1-c1ccc([C@H](C)NC(=O)[C@@H]2C[C@@H](O)CN2C(=O)[C@@H](c2cc(OCCN3CC(C4CCN(C(=O)c5ccc(CCOc6cc(-c7ccccc7O)nnc6N)cc5)CC4)C3)no2)C(C)C)cc1 [Compound 211, (2S,4R)-1-[(2R)-2-[3-[2-(3-[1-[4-(2-[[3-amino-6-(2-hydroxyphenyl)pyridazin-4-yl]oxy]ethyl)benzoyl]piperidin-4-yl]azetidin-1-yl)ethoxy]-1,2-oxazol-5-yl]-3-methylbutanoyl]-4-hydroxy-N-[(1S)-1-[4-(4-methyl-1,3-thiazol-5-yl)phenyl]ethyl]pyrrolidine-2-carboxamide] | A (“A” indicates maximum degradation ≥75%)
3 | > 100 | > 75 | > 10 | Cc1ncsc1-c1ccc([C@H](C)NC(=O)[C@@H]2C[C@@H](O)CN2C(=O)[C@@H](c2cc(OCCN3CC4=C(C3)CN(C(=O)c3ccc(CCOc5cc(-c6ccccc6O)nnc5N)cc3)C4)no2)C(C)C)cc1 [Compound 213, (2S,4R)-1-((R)-2-(3-(2-(5-(4-(2-((3-amino-6-(2-hydroxyphenyl)pyridazin-4-yl)oxy)ethyl)benzoyl)-3,4,5,6-tetrahydropyrrolo[3,4-c]pyrrol-2(1H)-yl)ethoxy)isoxazol-5-yl)-3-methylbutanoyl)-4-hydroxy-N-((S)-1-(4-(4-methylthiazol-5-yl)phenyl)ethyl)pyrrolidine-2-carboxamide] | A (“A” indicates maximum degradation ≥75%)
4 | > 1000 | < 50 | > 10 | Cc1ncsc1-c1ccc([C@H](C)NC(=O)[C@@H]2C[C@@H](O)CN2C(=O)[C@@H](NC(=O)CCCCCCCCCCCCCCC(=O)NCc2ccc(CCOc3cc(-c4ccccc4O)nnc3N)cc2)C(C)(C)C)cc1 [Compound 214, N1-(4-(2-((3-amino-6-(2-hydroxyphenyl)pyridazin-4-yl)oxy)ethyl)benzyl)-N16-((S)-1-((2S,4R)-4-hydroxy-2-(((S)-1-(4-(4-methylthiazol-5-yl)phenyl)ethyl)carbamoyl)pyrrolidin-1-yl)-3,3-dimethyl-1-oxobutan-2-yl)hexadecanediamide] | A (“A” indicates maximum degradation ≥75%)
5 | > 1000 | < 50 | > 10 | Cc1ncsc1-c1ccc([C@H](C)NC(=O)[C@@H]2C[C@@H](O)CN2C(=O)[C@@H](NC(=O)CCCCCCCCCCCCCCC(=O)N(C)Cc2ccc(CCOc3cc(-c4ccccc4O)nnc3N)cc2)C(C)(C)C)cc1 [Compound 215, N1-(4-(2-((3-amino-6-(2-hydroxyphenyl)pyridazin-4-yl)oxy)ethyl)benzyl)-N16-((S)-1-((2S,4R)-4-hydroxy-2-(((S)-1-(4-(4-methylthiazol-5-yl)phenyl)ethyl)carbamoyl)pyrrolidin-1-yl)-3,3-dimethyl-1-oxobutan-2-yl)-N1-methylhexadecanediamide] | A (“A” indicates maximum degradation ≥75%)
6 | > 1000 | < 50 | > 10 | Cc1ncsc1-c1ccc([C@H](C)NC(=O)[C@@H]2C[C@@H](O)CN2C(=O)[C@@H](c2cc(OCCN3CCN(c4cc(-c5ccccc5O)nnc4N)CC3)no2)C(C)C)cc1 [Compound 217, (2S,4R)-1-((R)-2-(3-(2-(4-(3-amino-6-(2-hydroxyphenyl)pyridazin-4-yl)piperazin-1-yl)ethoxy)isoxazol-5-yl)-3-methylbutanoyl)-4-hydroxy-N-((S)-1-(4-(4-methylthiazol-5-yl)phenyl)ethyl)pyrrolidine-2-carboxamide] | A (“A” indicates maximum degradation ≥75%)

More lines, now with the values behind:

Row | Compound | DC50 [1] [nM] | Dmax [1] [%] | DC50 [2] [nM] | BRM HiBit Degradation Maximum (%) [2]
7 | Cc1ncsc1-c1ccc([C@H](C)NC(=O)[C@@H]2C[C@@H](O)CN2C(=O)[C@@H](c2cc(OCCN3CCC(O)(C(=O)NCc4ccc(CCOc5cc(-c6ccccc6O)nnc5N)cc4)CC3)no2)C(C)C)cc1 [Compound 206, N-[[4-(2-[[3-amino-6-(2-hydroxyphenyl)pyridazin-4-yl]oxy]ethyl)phenyl]methyl]-4-hydroxy-1-[2-([5-[(2R)-1-[(2S,4R)-4-hydroxy-2-[[(1S)-1-[4-(4-methyl-1,3-thiazol-5-yl)phenyl]ethyl]carbamoyl]pyrrolidin-1-yl]-3-methyl-1-oxobutan-2-yl]-1,2-oxazol-3-yl]oxy)ethyl]piperidine-4-carboxamide] | > 100 | > 75 | > 10 | A (“A” indicates maximum degradation ≥75%)
8 | Cc1ncsc1-c1ccc([C@H](C)NC(=O)[C@@H]2C[C@@H](O)CN2C(=O)[C@@H](c2cc(OCCN3CCC(C4CN(C(=O)c5ccc(CCOc6cc(-c7ccccc7O)nnc6N)cc5)C4)CC3)no2)C(C)C)cc1 [Compound 207, (2S,4R)-1-[(2R)-2-[3-[2-(4-[1-[4-(2-[[3-amino-6-(2-hydroxyphenyl)pyridazin-4-yl]oxy]ethyl)benzoyl]azetidin-3-yl]piperidin-1-yl)ethoxy]-1,2-oxazol-5-yl]-3-methylbutanoyl]-4-hydroxy-N-[(1S)-1-[4-(4-methyl-1,3-thiazol-5-yl)phenyl]ethyl]pyrrolidine-2-carboxamide] | > 1000 | < 50 | > 10 | A (“A” indicates maximum degradation ≥75%)
9 | Cc1ncsc1-c1ccc([C@H](C)NC(=O)[C@@H]2C[C@@H](O)CN2C(=O)[C@@H](c2cc(OCCN3CC4(C3)CN(C(=O)c3ccc(CCOc5cc(-c6ccccc6O)nnc5N)cc3)C4)no2)C(C)C)cc1 [Compound 208, (2S,4R)-1-[(2R)-2-[3-(2-[6-[4-(2-[[3-amino-6-(2-hydroxyphenyl)pyridazin-4-yl]oxy]ethyl)benzoyl]-2,6-diazaspiro[3.3]heptan-2-yl]ethoxy)-1,2-oxazol-5-yl]-3-methylbutanoyl]-4-hydroxy-N-[(1S)-1-[4-(4-methyl-1,3-thiazol-5-yl)phenyl]ethyl]pyrrolidine-2-carboxamide] | > 100 | > 75 | > 10 | A (“A” indicates maximum degradation ≥75%)
10 | Cc1ncsc1-c1ccc([C@H](C)NC(=O)[C@@H]2C[C@@H](O)CN2C(=O)[C@@H](c2cc(OCCN3CCC(OC4CCN(C(=O)c5ccc(CCOc6cc(-c7ccccc7O)nnc6N)cc5)CC4)CC3)no2)C(C)C)cc1 [Compound 210, (2S,4R)-1-((R)-2-(3-(2-(4-((1-(4-(2-((3-amino-6-(2-hydroxyphenyl)pyridazin-4-yl)oxy)ethyl)benzoyl)piperidin-4-yl)oxy)piperidin-1-yl)ethoxy)isoxazol-5-yl)-3-methylbutanoyl)-4-hydroxy-N-((S)-1-(4-(4-methylthiazol-5-yl)phenyl)ethyl)pyrrolidine-2-carboxamide] | > 100 | > 50 | < 10 | A (“A” indicates maximum degradation ≥75%)
11 | Cc1ncsc1-c1ccc([C@H](C)NC(=O)[C@@H]2C[C@@H](O)CN2C(=O)[C@@H](c2cc(OCCNCCCCCCCCCCC(=O)NCc3ccc(CCOc4cc(-c5ccccc5O)nnc4N)cc3)no2)C(C)C)cc1 [Compound 212, (2S,4R)-1-[(2R)-2-[3-(2-[[10-([[4-(2-[[3-amino-6-(2-hydroxyphenyl)pyridazin-4-yl]oxy]ethyl)phenyl]methyl]carbamoyl)decyl]amino]ethoxy)-1,2-oxazol-5-yl]-3-methylbutanoyl]-4-hydroxy-N-[(1S)-1-[4-(4-methyl-1,3-thiazol-5-yl)phenyl]ethyl]pyrrolidine-2-carboxamide] | > 1000 | < 50 | > 10 | A (“A” indicates maximum degradation ≥75%)
12 | Cc1ncsc1-c1ccc(CNC(=O)[C@@H]2C[C@@H](O)CN2C(=O)[C@@H](NC(=O)CCN2[C@@H]3CC[C@H]2CN(C(=O)c2ccc(CCOc4cc(-c5ccccc5O)nnc4N)cc2)C3)C(C)(C)C)cc1 [Compound 216, (2S,4R)-1-((2S)-2-(3-(3-(4-(2-((3-amino-6-(2-hydroxyphenyl)pyridazin-4-yl)oxy)ethyl)benzoyl)-3,8-diazabicyclo[3.2.1]octan-8-yl)propanamido)-3,3-dimethylbutanoyl)-4-hydroxy-N-(4-(4-methylthiazol-5-yl)benzyl)pyrrolidine-2-carboxamide] | > 1000 | < 50 | > 1000 | C (“C” indicates maximum degradation <50%)
